From patent publication US12364681B2, “Combined MAPK and NAMPT inhibition for treatment of neuron degeneration” (The Johns Hopkins University, priority 2021, dated 2025)

Assays:
[1] = test system: axotomized murine DRG axons; assay: Axonal degeneration (degeneration index) of transected axons; assay type: cell-based
Procedure: (§1) The role of the DLK/LZK MAPK pathway in regulating NAD and SARM1 pathways of axonal degeneration was established. Its role in regulating levels of the NAD-synthesizing enzyme NMNAT2 after injury was explored by treating murine DRG axons with the DLK/LZK inhibitor GNE-3511 after axotomy.
To assess the therapeutic potential of post-axotomy MAPK inhibition, axons were treated with GNE-3511 at different time points before or after axotomy (2 h pre-treatment, immediately after axotomy, 0 h, or 2 and 4 hours post-injury).
Due to the different mechanism of action of MAPK and NAMPT inhibition, therapeutic synergy was further tested by treating axotomized axons with the MAPK inhibitor GNE at the time of injury and the NAMPT inhibitor FK866 at different time points (2, 4, 6 or 8 hours post injury).
Transected axons were treated with the NAMPT inhibitor FK866 after injury and NaR was added concurrently or at 3, 6, 9, or 24 hours post axotomy. Statistical analysis of degeneration index was performed by two-way ANOVA for the effect of time (F(4,32)=62.77, p<0.0001), treatment (F(5,8)=17.05, p=0.0004), and their interactions (F(20,32)=16.82, p<0.0001) with Holm-Šidák's multiple comparisons. […] See FIG. 15 (error bars indicate +/−1 SEM).
Transected axons were treated at the time of injury with the DLK inhibitor GNE-3511 or vehicle (DMSO) and with the combination of FK866/NaR either at the time of injury or with an 8-hour delay. […] Statistical analysis of degeneration index was performed by two-way ANOVA for the effect of time (F(2.143, 17.15)=49.43, p<0.0001), treatment (F(3,8)=9.58, p=0.005), and their interactions (F(18,48)=13.99, p<0.0001) with Holm-Šidák's multiple comparisons. […] See FIG. 16B (error bars indicate +/−1 SEM).

[2] = test system: NAD+ pathway metabolites (NMN, NAD+, cADPR, Nam) in transected axons; assay: Metabolite analysis of distal axons 8 hours post axotomy; assay type: cell-based
Procedure: Axons were transected and treated with vehicle (DMSO), the NAMPT inhibitor FK866, or FK866+NaR. Axons were collected at 8 hours post axotomy for metabolite analysis. […] Statistically significant changes between treated and untreated transected axons were analyzed with one-way ANOVA and Holm-Šidák's multiple comparisons; *=p<0.05, **=p<0.01, ***=p<0.001, #=p<0.0001. Error bars indicate +/−1 SEM.
Relative changes in protein-normalized levels of metabolites in distal axons were measured at 8 hours following transection and treatment at the time of injury with the MAPK inhibitor GNE-3511, the NAMPT inhibitor FK866 in combination with NaR, or with the three compounds together.

[3] = test system: JNK, SCG10, NMNAT2 and α-Spectrin in murine DRG axons; assay: Western blot of distal axons after axotomy; assay type: cell-based
Procedure: as §1
Western blot analysis of distal axons was performed at 4 and 8 hours after transection and treatment with the DLK inhibitor GNE3511 or vehicle (DMSO).

[4] = test system: retinal ganglion cells (RGCs); assay: Impact acceleration (IA) TBI model: RGC survival, SNCG staining of retinal whole-mounts; assay type: in vivo, mice; conditions: intraperitoneal 60 mg/kg, treatment 21 days after IA; vehicle 1500 cells/mm2; p<0.05
Text: Experimental subjects and IA procedures Eight-week-old male C57BL/6 J wild-type mice and transgenic Dlk^fl/fl and Dlk^fl/flLzk^fl/fl mice were subjected to IA or sham injury. Male mice were chosen such as to avoid the confounding effects of sex hormones on injury outcomes. Wild-type mice and founders were purchased from Charles River Laboratories (Wilmington, MA). Animals were housed in a vivarium with a 12-h light/12-h dark cycle and given ad libitum access to food and water. All animal handling as well as surgical and postoperative procedures were carried out according to protocols approved by the Animal Care and Use Committee of the Johns Hopkins Medical Institutions.
Impact acceleration injury was performed with height weight settings generating kinetic energy of 0.45-0.5 Jupon impact, essentially as described (FIG. 21). Immediately prior to injury, the cranium was exposed and a 5 mm-thick stainless-steel disc was glued onto the skull midway between bregma and lambda sutures. Surgical procedures and injury were performed under aseptic conditions with gas anesthesia (isoflurane:oxygen:nitrous oxide=1:33:66). Immediately after injury the disc was removed the skull was checked under the surgical microscope for skull fractures. The rare animals with skull fractures were excluded from further study because such events introduce injuries variables that cannot be easily controlled. […]

[5] = in vivo; cited from earlier work
[6] = treatment immediately after axotomy
[7] = GNE vs FK+NaR and vs FK+NaR+GNE

In the case of `O=C(/C=C/c1cccnc1)NCCCCC1CCN(C(=O)c2ccccc2)CC1` [FK866], the “protection from axonal degeneration” value ([1]; in the absence of GNE-3511, added 2, 4, 6 or 8 hours post injury) is reported as “provided protection especially when added at 2 hours”, the “protection from axonal degeneration” value ([1]; with GNE-3511 at the time of injury, FK-866 added 2, 4, 6 or 8 hours post injury) is reported as “enhanced at 2, 4 and 6 hours post injury” and the “NAD+ degrading activity (cADPR/NAD+) relative to vehicle” value [2] is reported as “suppressed the NAD+ degrading activity”. The “NAD+/NMN ratio compared to vehicle” value [2] was “increases”, the “NMN/Nam ratio compared to vehicle” value [2] was “reductions” and the “cADPR levels relative to vehicle” value [2] was “only the combined treatment suppressed cADPR levels”. The “NAD+ levels compared to vehicle treated transected axons” value ([2]; treatment at time of injury) was “protects NAD+ levels” and the “NMN levels compared to vehicle treated transected axons” value ([2]; treatment at time of injury) was “suppressed NMN”.

In the case of `N#Cc1ccnc(Nc2cc(C3CCN(C4COC4)CC3)cc(N3CCC(F)(F)C3)n2)c1` [GNE-3511], the “injury associated degradation of SCG10” value ([3]; 4 and 8 hours after transection) is reported as “suppressed the injury associated degradation of SCG10”, the “phosphorylation of JNK” value ([3]; 4 hours after transection, vs vehicle (DMSO), n=3) is reported as “suppressed phosphorylation of JNK” and the “injury associated degradation of spectrin (p150 fragment to total spectrin)” value ([3]; 8 hours after transection) is reported as “suppressed”. For the same molecule, the “degradation of NMNAT2 between 4 and 8 hours post-axotomy” value ([3]; significantly degraded in vehicle treated axons) was “not in the presence of GNE”, the “calpain-mediated degradation of α-Spectrin” value [3, 6] was “ameliorated the calpain-mediated degradation” and the “degradation of NMNAT2” value [3, 6] was “reduced the degradation”. The “phosphorylation of SCG10” value [3, 6] was “reduced phosphorylation”, the “phosphorylation of the downstream JNKs” value [3, 6] was “reduced phosphorylation” and the “protection from axonal degeneration” value ([1]; applied before (2 h pre-treatment) or immediately following injury (0 h)) was “Significant protection”. The “protection from axonal degeneration” value ([1]; more delayed regimes (2 and 4 hours post-injury)) was “lesser protection”, the “cADPR/NAD+ ratio, difference vs FK+NaR” value [2] was “significant differences” and the “NAD+/NMN ratio, difference between treatment groups” value [2, 7] was “significant differences”. For the same molecule, the “Nam/NAD+ ratio, difference between treatment groups” value [2, 7] was “significant differences” and the “NAD+ levels compared to FK+NaR or the triple combination” value ([2]; treatment at time of injury) was “greater protection of NAD+ levels”.

In the case of `NC(=O)c1ccc[n+]([C@@H]2O[C@H](CO)[C@@H](O)[C@H]2O)c1` [NaR, nicotinamide riboside], the “axon protection (degeneration index) compared to FK866 alone” value ([1]; NaR added 3, 6 or 9 hours post-axotomy in the presence of FK866, up to 4 days post-injury, p<0.0001) is reported as “significantly protected axons”, the “axon protection (degeneration index) compared to FK866 alone” value ([1]; NaR added at 24 hours in the presence of FK866) is reported as “no additive effect” and the “delay of NaR supplementation after axotomy with minimal and/or no loss of efficacy in suppressing axon fragmentation” value ([1]; in the presence of FK866 given after injury) is reported as “up to 9 hours”.

For `CCN(CC)CCNC(=O)c1c(C)[nH]c(/C=C2\C(=O)Nc3ccc(F)cc32)c1C` [sunitinib], the “number of surviving RGCs” value [4] is listed as about 2300 cells/mm2 and the CNS penetration [5] is listed as “penetrates the CNS”.
